Measured values reported in ChEMBL document CHEMBL1126456, “Vinylogous hydroxamic acids: 5-lipoxygenase inhibitors” (Bioorg Med Chem Lett, 1992).

Each compound was assayed against T1, Polyunsaturated fatty acid 5-lipoxygenase (Rattus norvegicus, UniProt P12527) (assay: Inhibition of 5-Lipoxygenase of rat basophilic leukemia cells).
T1 sequence (P12527 whole entry): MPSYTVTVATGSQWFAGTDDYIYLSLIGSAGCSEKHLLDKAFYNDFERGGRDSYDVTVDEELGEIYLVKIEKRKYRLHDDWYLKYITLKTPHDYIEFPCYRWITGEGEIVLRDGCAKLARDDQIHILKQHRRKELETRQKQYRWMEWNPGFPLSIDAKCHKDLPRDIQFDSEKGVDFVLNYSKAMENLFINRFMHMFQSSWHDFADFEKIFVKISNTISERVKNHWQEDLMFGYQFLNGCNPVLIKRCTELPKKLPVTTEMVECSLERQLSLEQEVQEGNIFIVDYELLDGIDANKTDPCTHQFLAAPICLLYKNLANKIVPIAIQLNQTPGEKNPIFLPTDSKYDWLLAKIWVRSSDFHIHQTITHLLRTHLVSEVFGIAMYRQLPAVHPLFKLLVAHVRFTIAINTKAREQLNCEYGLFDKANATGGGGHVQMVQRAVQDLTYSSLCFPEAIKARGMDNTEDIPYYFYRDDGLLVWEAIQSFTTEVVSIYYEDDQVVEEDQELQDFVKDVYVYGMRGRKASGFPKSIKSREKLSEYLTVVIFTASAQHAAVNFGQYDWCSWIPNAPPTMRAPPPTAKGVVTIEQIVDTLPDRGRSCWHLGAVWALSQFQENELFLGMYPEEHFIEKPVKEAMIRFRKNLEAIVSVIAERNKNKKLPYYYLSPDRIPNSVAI
Assay type: cell-based, RBL-1

Row | IC50 [µM] | Structure (SMILES)
1 | 0.3 | C/C(=C/N(O)Cc1ccccc1)C(=O)c1ccc(F)cc1

These compounds were tested against T2, Cyclooxygenase (Bos taurus, UniProt O62664+O62698) (assay: Compound was evaluated for inhibition against cyclooxygenase of bovine seminal vesicles).
T2 sequence (O62664 whole entry): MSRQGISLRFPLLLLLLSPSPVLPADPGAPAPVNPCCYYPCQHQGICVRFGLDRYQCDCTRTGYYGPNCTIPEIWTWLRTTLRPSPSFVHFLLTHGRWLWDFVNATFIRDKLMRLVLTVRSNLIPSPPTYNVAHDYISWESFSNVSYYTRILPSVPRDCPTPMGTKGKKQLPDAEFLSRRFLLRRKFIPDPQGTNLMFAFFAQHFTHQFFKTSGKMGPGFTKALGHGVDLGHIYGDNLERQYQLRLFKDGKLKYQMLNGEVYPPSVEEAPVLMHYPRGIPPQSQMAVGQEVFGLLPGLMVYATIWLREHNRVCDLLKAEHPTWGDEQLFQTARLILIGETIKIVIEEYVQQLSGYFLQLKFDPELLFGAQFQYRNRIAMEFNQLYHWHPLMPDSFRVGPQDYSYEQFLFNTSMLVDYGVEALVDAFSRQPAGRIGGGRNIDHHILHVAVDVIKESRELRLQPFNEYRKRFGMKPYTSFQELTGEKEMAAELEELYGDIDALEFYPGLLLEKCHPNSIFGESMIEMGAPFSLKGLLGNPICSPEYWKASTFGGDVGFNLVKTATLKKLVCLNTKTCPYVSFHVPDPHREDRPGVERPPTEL
T2 sequence (O62698 whole entry): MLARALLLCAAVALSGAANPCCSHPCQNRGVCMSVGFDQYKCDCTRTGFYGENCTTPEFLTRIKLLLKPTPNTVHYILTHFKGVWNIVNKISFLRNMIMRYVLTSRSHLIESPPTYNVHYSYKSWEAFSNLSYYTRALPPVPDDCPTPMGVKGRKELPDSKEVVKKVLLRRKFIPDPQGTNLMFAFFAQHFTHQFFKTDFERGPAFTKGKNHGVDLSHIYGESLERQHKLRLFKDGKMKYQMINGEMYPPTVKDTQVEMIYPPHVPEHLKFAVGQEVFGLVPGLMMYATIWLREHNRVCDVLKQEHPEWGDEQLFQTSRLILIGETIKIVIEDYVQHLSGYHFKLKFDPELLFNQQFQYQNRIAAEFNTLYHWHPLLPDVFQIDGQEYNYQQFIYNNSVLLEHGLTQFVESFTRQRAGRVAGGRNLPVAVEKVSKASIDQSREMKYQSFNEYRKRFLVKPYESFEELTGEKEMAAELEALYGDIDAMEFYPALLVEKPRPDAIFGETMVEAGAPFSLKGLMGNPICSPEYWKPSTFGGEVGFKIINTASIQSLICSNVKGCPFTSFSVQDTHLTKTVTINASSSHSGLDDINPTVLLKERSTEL
Assay type: protein assay

Row | IC50 [µM] | Structure (SMILES)
2 | > 750 | O=C(/C=C\N(O)C1CCCCC1)c1ccc(F)cc1
3 | 6.9 | O=C1CCN(c2ccccc2)N1 [PHENIDONE]

More lines, now with the values behind:

Row | Structure (SMILES) | IC50 [µM]
4 | CC(=O)ON(/C=C\C(=O)c1ccc(F)cc1)Cc1ccccc1 | > 750
5 | CON(/C=C\C(=O)c1ccc(F)cc1)Cc1ccccc1 | > 750
6 | O=C(/C=C\N(O)Cc1ccccc1)c1ccc(F)cc1 | > 750
7 | CC(c1cc2ccccc2s1)N(O)C(N)=O (configuration not stated) [ZILEUTON] | > 750
